Broadly, the inhibition is the change of the read-out against control, counted positive when it falls. Broadly, the IC50 is the point on the concentration scale where inhibition reaches its midpoint.

Like-named read-outs stand apart in the source and are kept apart here.

Assay [1] concerns HeLa (HPV 18+) human cervical cell line. The experiment in a line: Antiproliferative MTT assay, HeLa. It counts as cell-based. The following applies: Homo sapiens. As to the method:
(§1) Antiproliferative effect of the isolated compounds were determined in vitro using SiHa (HPV 16+), HeLa (HPV 18+), C33A (HPV negative) human cervical cell lines, NIH-3T3 mouse embryonic and MRC-5 human fibroblast cells by means of MTT ([3-(4,5-dimethylthiazol-2-yl)-2,5-diphenyltetrazolium bromide]) assay. Briefly, a limited number of human cancer cells (5000/well for SiHa and HeLa cells, 10,000/well in case of C33A cells) were seeded onto a 96-well microplate and became attached to the bottom of the well overnight. On the second day of the procedure, the test substances were added in two concentrations (10.0 and 30.0 µM) in order to obtain preliminary data and then the compounds were applied in serial dilution (applied final concentrations were: 0.1, 0.3, 1.0, 3.0, 10.0, 30.0 µM). Further details of the experiment were described in ref. [30]. All in vitro experiments were carried out on two 96-well dishes with at least five parallel wells [31].

Assay [2] relates to C33A (HPV negative) human cervical cell line. The assay can be described thus: Antiproliferative MTT assay, C33A. In kind it is cell-based. As to the method:
as §1

For assay [3], the system named is SiHa (HPV 16+) human cervical cell line. The experiment in a line: Antiproliferative MTT assay, SiHa. In kind it is cell-based. Particulars: for IC50: read-out: Calculated IC50 Values (μM) [95% CI]. As to the method:
as §1

The test system of assay [4] is NIH/3T3 (mouse embryonic fibroblast). The experiment in a line: Antiproliferative MTT assay, NIH/3T3. Particulars: for IC50: read-out: Calculated IC50 Values (μM) [95% CI]. It counts as cell-based. As to the method:
as §1

A further assay relates to MRC-5 (human fibroblast). The assay can be described thus: Antiproliferative MTT assay, MRC-5. It counts as cell-based. Particulars: for IC50: read-out: Calculated IC50 Values (μM) [95% CI]. The method, then:
as §1

Assay [5] concerns SiHa cells. The assay can be described thus: Cell cycle analysis by flow cytometry. In kind it is cell-based, human. The following applies: 48 or 72 h treatment. The method, then:
Cell cycle analysis was performed as described in [32, 33].
A general note: Flow cytometry measures light scatter and fluorescence of single cells or particles in a stream.

Assay [6] has as its system SiHa cells. The experiment in a line: Wound healing assay. It counts as cell-based, human. The method, then:
In order to assess antimetastatic activity of the tested compound, wound healing assay was performed. The assay was done with specific wound healing assay chambers (Ibidi GmbH, Gräfelfing, Germany). SiHa cells were collected and 35,000 cells were seeded into both chambers of the insert. Cells were let to be attached to the plate surface during an overnight incubation at 37 °C in 5% CO2 atmosphere and then the inserts were removed. Cell debris was removed by a washing step with PBS. Test compounds were added to the wells in increasing concentrations in 2% FBS containing medium for 24 and 48 h. Migration of the cells into the wound site was visualized by phase-contrast inverted microscope (Axiovert 40, Zeiss, Thornwood, NY, USA). Images were taken with CCD camera at definite intervals and the migration of the cells was calculated as the ratio of wound closure by ImageJ software.

Where [7] appears, read: Homo sapiens, C-33-A, read-out: Growth Inhibition Values (%) ± SEM.

In the case of `C=C1C(=O)OC2C=C(C)C(OC(C)=O)CC3OC3(C)CC(OC(=O)CC(C)C)C12` (centres unmarked) [Compound 6, Lobatolide C], the inhibition at 10 µM in assay [1] (10 μM, read-out: Growth Inhibition Values (%) ± SEM) is less than 20%; in assay [2] (setting [7]) it was 96.55 ± 0.22%; in assay [3] (Homo sapiens, 10 μM, read-out: Growth Inhibition Values (%) ± SEM), 84.2 ± 2.32%; in assay [4] (Mus musculus, NIH3T3, NIH/3T3, 10 μM, MTT, read-out: Growth Inhibition Values (%) ± SEM), 40.7 ± 2.92%; with MRC-5 (human fibroblast) (Homo sapiens, MRC5, MRC-5, 10 μM, MTT, read-out: Growth Inhibition Values (%) ± SEM), less than 20%. Further, the inhibition at 30 µM is 91.9 ± 1.23% in assay [1] (30 μM, read-out: Growth Inhibition Values (%) ± SEM); 96.72 ± 0.33% in assay [2] (setting [7]); 84.8 ± 1.89% in assay [3] (Homo sapiens, 30 μM, read-out: Growth Inhibition Values (%) ± SEM); 96.8 ± 0.25% in assay [4] (Mus musculus, NIH3T3, NIH/3T3, 30 μM, MTT, read-out: Growth Inhibition Values (%) ± SEM); 73 ± 1.64% in the assay on MRC-5 (human fibroblast) (Homo sapiens, MRC5, MRC-5, 30 μM, MTT, read-out: Growth Inhibition Values (%) ± SEM). The IC50 in assay [1] (read-out: Calculated IC50 Values (μM) [95% CI]) was 15.7 µM; in assay [2] (Homo sapiens, C-33-A, read-out: Calculated IC50 Values (μM) [95% CI], C33A, MTT), 3.2 to 3.6 µM; in assay [2] (read-out: Calculated IC50 Values (μM) [95% CI], C33A, MTT) it was 3.53 µM; in assay [3] (Homo sapiens), 3.2 to 3.6 µM; in assay [3], 3.24 µM; in assay [4] (Mus musculus, NIH3T3, NIH/3T3, MTT), more than 11 µM. The IC50 is 11.2 µM in assay [4] (NIH/3T3, MTT); more than 11 µM in the assay on MRC-5 (human fibroblast) (Homo sapiens, MRC5, MRC-5, MTT); 11.9 µM with MRC-5 (human fibroblast) (MRC-5, MTT). Further, the Cell cycle distribution entry in the assay on SiHa cells [5] is listed as “significant concentration-dependent accumulation of cells in the S phase”. Further, the Wound closure in the assay on SiHa cells [6] (1.5 µM, 48 h (control 70%)) amounted to 47%; in the assay on SiHa cells [6] (3 µM, 24 h (control 30%)), 12%; in the assay with SiHa cells [6] (3 µM, 48 h (control 70%)), 18%.

The values are drawn from publication PMC8704432, “Isolation, Structure Determination of Sesquiterpenes from Neurolaena lobata and Their Antiproliferative, Cell Cycle Arrest-Inducing and Anti-Invasive Properties against Human Cervical Tumor Cells” (Pharmaceutics, 2021).
